Source: patent US11566030B2, “Substituted 2,6-dihydropyrrolo[3,4-c]pyrazoles as pyruvate kinase activators” (priority 2021, dated 2023)
Read-outs that look alike come from different tables or passages of the source.

Target: T1, Human pyruvate kinase R (PKR) (Homo sapiens, UniProt P30613)
T1 construct: Human pyruvate kinase R (PKR), residues 14-574; 6xHis-8xArg-SUMO (N, cleaved yes); host or cells: E. coli
Assay: Biochemical assay for activation of pyruvate kinase R (Kinase-Glo luminescence, ATP generation)
Conditions: for Emax: read-out: PKR % activation, maximal activation level achieved with each compound relative to the activation level achieved by AG-348 @ 10 μM
Procedure: Human pyruvate kinase R (PKR), residues 14-574, and human pyruvate kinase M2, residues 1-531, were cloned into expression plasmids and obtained from ATUM Bio (Newark, Calif.). Proteins were translated as fusions with 6×-His,8×-Arg, and SUMO at the N-terminus. A third construct of human PKR was truncated, residues 50-574, and similarly cloned for use in crystallography experiments. All proteins were cloned, expressed in E. coli, and purified using similar protocols. Cells were grown at 30° C. in Luria-Bertani broth supplemented with 0.4% glucose to OD600=0.8 and induced with 0.4 mM IPTG at 16° C. for 18 hours. Cells were harvested by centrifugation, resuspended in 50 mM potassium phosphate pH 8.0, 500 mM NaCl, 25 mM imidazole pH 8.0, and 3 mM β-mercaptoethanol. Cells were lysed using a LM20 microfluidizer from Microfluidics (Westwood, Mass.). The crude lysate was immediately supplemented with 0.2 mM phenylmethylsulfonyl fluoride (PMSF) and centrifuged at 20,000 g for 20 minutes. The soluble fraction was subsequently incubated with 2 mL Ni-NTA (GE Healthcare) per 1,000 ODs for 1 hour at 4° C. Following incubation with the Ni-NTA resin, lysate was removed by pelleting resin at 2,500 g for 3 minutes and washed 3 times with 9 bed volumes of 50 mM potassium phosphate pH 8.0, 500 mM NaCl, 25 mM imidazole, and 3 mM β-mercaptoethanol. Following the batch wash Ni-NTA resin was loaded onto a gravity column and His-tagged protein was eluted with 6 bed volumes of 10 mM Tris/HCl pH 8.0, 200 mM NaCl, 500 mM imidazole, and 3 mM β-mercaptoethanol. Eluted protein was dialyzed overnight against 10 mM Tris/HCl pH 8.0, 200 mM NaCl, and 1 mM DTT and the 6×-His-8×-Arg-SUMO-tag was cleaved using a 20:1 molar ratio of protein: 3C protease. The protein was purified by anion exchange chromatography on a HiTrapQ or MonoQ 10/100 GL column (GE Healthcare) via a linear NaCl gradient and twice by size exclusion chromatography using a Superdex S200 26/60 column (GE Healthcare) run in 10 mM Tris/HCl pH 8.0, 200 mM NaCl, 10 mM MgCl2, 1 mM DTT. Proteins were concentrated to −12 mg/mL for crystallization and flash frozen for storage.
Biochemical assay for Activation of Pyruvate Kinase R
Activation of pyruvate kinase R (PKR) and pyruvate kinase M2 (PKM2) were measured using a luminescence based measurement of ATP generation and the Kinase-Glo luminescent kinase reagent kit.

[1] = PKR AC50 (nM), 0.1 nM PKR, 0.3 mM ADP, 0.1 mM PEP, 1% DMSO

T1 sequence (P30613 14-574): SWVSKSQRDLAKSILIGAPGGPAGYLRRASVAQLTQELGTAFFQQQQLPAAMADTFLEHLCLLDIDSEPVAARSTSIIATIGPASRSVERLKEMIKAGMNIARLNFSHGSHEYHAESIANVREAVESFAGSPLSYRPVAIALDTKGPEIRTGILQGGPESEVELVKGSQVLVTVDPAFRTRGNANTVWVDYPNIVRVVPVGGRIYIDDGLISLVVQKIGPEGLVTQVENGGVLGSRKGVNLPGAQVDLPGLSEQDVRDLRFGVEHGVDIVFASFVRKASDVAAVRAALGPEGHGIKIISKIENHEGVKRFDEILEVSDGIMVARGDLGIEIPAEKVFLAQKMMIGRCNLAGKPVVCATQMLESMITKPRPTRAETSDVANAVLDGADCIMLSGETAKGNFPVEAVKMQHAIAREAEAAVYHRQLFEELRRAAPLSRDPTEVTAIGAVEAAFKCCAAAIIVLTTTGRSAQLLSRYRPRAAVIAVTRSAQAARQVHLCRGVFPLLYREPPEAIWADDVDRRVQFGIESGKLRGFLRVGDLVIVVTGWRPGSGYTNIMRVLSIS

Row | SMILES | AC50 [nM] | Emax [%] | AC50 [1] [nM]
1 | Cc1c(S(=O)(=O)n2cc3c(n2)CN(C(=O)[C@H](CO)c2ccccc2F)C3)cnn1CC(F)F [Compound 14, (2S)-1-(2-{[1-(2,2-difluoroethyl)-5-methyl-1H-pyrazol-4-yl]sulfonyl}-2H,4H,5H,6H-pyrrolo[3,4-c]pyrazol-5-yl)-2-(2-fluorophenyl)-3-hydroxypropan-1-one] | 7.1 | 129 | 
2 | Cc1nc(C)c(S(=O)(=O)n2cc3c(n2)CN(C(=O)[C@H](CO)c2ccccc2)C3)s1 [Compound 15, (2S)-1-{2-[(2,4-dimethyl-1,3-thiazol-5-yl)sulfonyl]-2H,4H,5H,6H-pyrrolo[3,4-c]pyrazol-5-yl}-3-hydroxy-2-phenylpropan-1-one] | 44 | 15 | 
3 | Cc1noc(C)c1S(=O)(=O)n1cc2c(n1)CN(C(=O)[C@H](CO)c1ccccc1)C2 [Compound 16, (2S)-1-{2-[(3,5-dimethyl-1,2-oxazol-4-yl)sulfonyl]-2H,4H,5H,6H-pyrrolo[3,4-c]pyrazol-5-yl}-3-hydroxy-2-phenylpropan-1-one] |  | 55 | 1000
4 | O=C([C@H](CO)c1ccccc1)N1Cc2cn(S(=O)(=O)c3ccc(CCC(F)(F)F)s3)nc2C1 [Compound 17, (2S)-3-hydroxy-2-phenyl-1-(2-{[5-(3,3,3-trifluoropropyl)thiophen-2-yl]sulfonyl}-2H,4H,5H,6H-pyrrolo[3,4-c]pyrazol-5-yl)propan-1-one] |  | 23 | 53
5 | O=C([C@H](CO)c1ccccc1)N1Cc2cn(S(=O)(=O)c3ccc(-c4ccccc4)s3)nc2C1 [Compound 18, (2S)-3-hydroxy-2-phenyl-1-{2-[(5-phenylthiophen-2-yl)sulfonyl]-2H,4H,5H,6H-pyrrolo[3,4-c]pyrazol-5-yl}propan-1-one] |  | 70 | 72
6 | O=C([C@H](CO)c1ccccc1)N1Cc2cn(S(=O)(=O)c3ccc(Br)s3)nc2C1 [Compound 19, (2S)-1-{2-[(5-bromothiophen-2-yl)sulfonyl]-2H,4H,5H,6H-pyrrolo[3,4-c]pyrazol-5-yl}-3-hydroxy-2-phenylpropan-1-one] |  | 67 | 19
7 | Cc1nc(CCC(F)(F)F)sc1S(=O)(=O)n1cc2c(n1)CN(C(=O)[C@H](CO)c1ccccc1)C2 [Compound 20, (2S)-3-hydroxy-1-(2-{[4-methyl-2-(3,3,3-trifluoropropyl)-1,3-thiazol-5-yl]sulfonyl}-2H,4H,5H,6H-pyrrolo[3,4-c]pyrazol-5-yl)-2-phenylpropan-1-one] | 720 | 7 | 
8 | CCc1ccc(S(=O)(=O)n2cc3c(n2)CN(C(=O)[C@H](CO)c2ccccc2)C3)s1 [Compound 21, (2S)-1-{2-[(5-ethylthiophen-2-yl)sulfonyl]-2H,4H,5H,6H-pyrrolo[3,4-c]pyrazol-5-yl}-3-hydroxy-2-phenylpropan-1-one] | 16 | 65 | 
9 | Cc1nc(OCC(F)(F)F)sc1S(=O)(=O)n1cc2c(n1)CN(C(=O)[C@H](CO)c1ccccc1)C2 [Compound 22, (2S)-3-hydroxy-1-(2-{[4-methyl-2-(2,2,2-trifluoroethoxy)-1,3-thiazol-5-yl]sulfonyl}-2H,4H,5H,6H-pyrrolo[3,4-c]pyrazol-5-yl)-2-phenylpropan-1-one] |  | 0 | 1000
10 | COc1nc(C)c(S(=O)(=O)n2cc3c(n2)CN(C(=O)[C@H](CO)c2ccccc2F)C3)s1 [Compound 23, (2S)-2-(2-fluorophenyl)-3-hydroxy-1-{2-[(2-methoxy-4-methyl-1,3-thiazol-5-yl)sulfonyl]-2H,4H,5H,6H-pyrrolo[3,4-c]pyrazol-5-yl}propan-1-one] | 8.6 | 30 | 
11 | O=C([C@H](CO)c1ccccc1)N1Cc2cn(S(=O)(=O)c3cn(CC(F)F)cn3)nc2C1 [Compound 24, (2S)-1-(2-{[1-(2,2-difluoroethyl)-1H-imidazol-4-yl]sulfonyl}-2H,4H,5H,6H-pyrrolo[3,4-c]pyrazol-5-yl)-3-hydroxy-2-phenylpropan-1-one] |  | 93 | 64
12 | O=C([C@@H](CO)c1ccccc1F)N1Cc2cn(S(=O)(=O)c3cnn(CC(F)(F)F)c3)nc2C1 [Compound 33, (2R)-2-(2-fluorophenyl)-3-hydroxy-1-[2-[1-(2,2,2-trifluoroethyl)pyrazol-4-ylsulfonyl]-4H,6H-pyrrolo[3,4-c]pyrazol-5-yl]propan-1-one] |  | 89 | 450
13 | O=C([C@@H](O)c1ccccc1)N1Cc2cn(S(=O)(=O)c3cnn(CC(F)F)c3)nc2C1 [Compound 34, (2S)-1-[2-[1-(2,2-difluoroethyl)pyrazol-4-ylsulfonyl]-4H,6H-pyrrolo[3,4-c]pyrazol-5-yl]-2-hydroxy-2-phenylethanone] | 930 | 102 | 
14 | O=C([C@@H](CO)c1ccccc1F)N1Cc2cn(S(=O)(=O)c3cnn(CCF)c3)nc2C1 [Compound 35, (2R)-1-[2-[1-(2-fluoroethyl)pyrazol-4-ylsulfonyl]-4H,6H-pyrrolo[3,4c]pyrazol-5-yl]-2-(2-fluorophenyl)-3-hydroxypropan-1-one] |  | 125 | 130
15 | O=C([C@H](O)c1ccccc1F)N1Cc2cn(S(=O)(=O)c3cnn(CC(F)F)c3)nc2C1 [Compound 36, (2R)-1-[2-[1-(2,2-difluoroethyl)pyrazol-4-ylsulfonyl]-4H,6H-pyrrolo[3,4-c]pyrazol-5-yl]-2-(2-fluorophenyl)-2-hydroxyethanone] |  | 85 | 23
16 | O=C([C@@H](O)c1ccccc1F)N1Cc2cn(S(=O)(=O)c3cnn(CC(F)F)c3)nc2C1 [Compound 37, (2S)-1-[2-[1-(2,2-difluoroethyl)pyrazol-4-ylsulfonyl]-4H,6H-pyrrolo[3,4-c]pyrazol-5-yl]-2-(2-fluorophenyl)-2-hydroxyethanone] |  | 126 | 960
17 | COCCn1ccc(S(=O)(=O)n2cc3c(n2)CN(C(=O)[C@H](CO)c2ccccc2F)C3)n1 [Compound 44, (2S)-2-(2-fluorophenyl)-3-hydroxy-1-[2-[1-(2-methoxyethyl)pyrazol-3-ylsulfonyl]-4H,6H-pyrrolo[3,4-c]pyrazol-5-yl]propan-1-one] |  | 53 | 110
18 | COCCn1ccc(S(=O)(=O)n2cc3c(n2)CN(C(=O)[C@@H](CO)c2ccccc2F)C3)n1 [Compound 45, (2R)-2-(2-fluorophenyl)-3-hydroxy-1-[2-[1-(2-methoxyethyl)pyrazol-3-ylsulfonyl]-4H,6H-pyrrolo[3,4-c]pyrazol-5-yl]propan-1-one] |  | 53 | 1300
19 | O=C([C@@H](CO)c1ccccc1Cl)N1Cc2cn(S(=O)(=O)c3cnn(CC(F)F)c3)nc2C1 [Compound 46, (R)-2-(2-chlorophenyl)-1-(2-((1-(2,2-difluoroethyl)-1H-pyrazol-4-yl)sulfonyl)-2,6-dihydropyrrolo[3,4-c]pyrazol-5(4H)-yl)-3-hydroxypropan-1-one] | 150 | 191 | 
20 | O=C([C@H](CO)c1ccccc1Cl)N1Cc2cn(S(=O)(=O)c3cnn(CC(F)(F)F)c3)nc2C1 [Compound 47, (2S)-2-(2-chlorophenyl)-3-hydroxy-1-[2-[1-(2,2,2-trifluoroethyl)pyrazol-4-ylsulfonyl]-4H,6H-pyrrolo[3,4-c]pyrazol-5-yl]propan-1-one] |  | 108 | 10
21 | O=C([C@@H](CO)c1ccccc1Cl)N1Cc2cn(S(=O)(=O)c3cnn(CC(F)(F)F)c3)nc2C1 [Compound 48, (2R)-2-(2-chlorophenyl)-3-hydroxy-1-[2-[1-(2,2,2-trifluoroethyl)pyrazol-4-ylsulfonyl]-4H,6H-pyrrolo[3,4-c]pyrazol-5-yl]propan-1-one] |  | 111 | 580
22 | C[C@@H](O)[C@@H](C(=O)N1Cc2cn(S(=O)(=O)c3cnn(CC(F)(F)F)c3)nc2C1)c1ccccc1 [Compound 49, (2S,3R)-3-hydroxy-2-phenyl-1-{2-[1-(2,2,2-trifluoroethyl)pyrazol-4-ylsulfonyl]-4H,6H-pyrrolo[3,4-c]pyrazol-5-yl}butan-1-one] |  | 113 | 71
23 | C[C@H](O)[C@@H](C(=O)N1Cc2cn(S(=O)(=O)c3cnn(CC(F)(F)F)c3)nc2C1)c1ccccc1 [Compound 50, (2S,3S)-3-hydroxy-2-phenyl-1-{2-[1-(2,2,2-trifluoroethyl)pyrazol-4-ylsulfonyl]-4H,6H-pyrrolo[3,4-c]pyrazol-5-yl}butan-1-one] |  | 89 | 82
